Results reported in publication PMC8333425, “Discovery of a dual Ras and ARF6 inhibitor from a GPCR endocytosis screen” (Nature Communications, 2021).

Assays:
Test in all cases: KINOMEscan kinase binding assay
[1] = molecular target: T1, 384 kinases from the human genome (Homo sapiens, UniProt Q92630); settings: kinase DYRK2 (Entrez DYRK2)
T1 construct: purchased Eurofin/DiscoverX
Method in brief: (§1)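 Competition binding (KINOMEscan) across 384 human kinases with compound at 10 µM. Ligand binding was expressed relative to DMSO (100%) as the average of duplicates from one experiment. S(10) selectivity score was derived.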

[2] = molecular target: T2, 384 kinases from the human genome (Homo sapiens, UniProt P50750); settings: kinase CDK9 (Entrez CDK9)
T2 construct: purchased Eurofin/DiscoverX
T2 sequence (P50750 whole entry): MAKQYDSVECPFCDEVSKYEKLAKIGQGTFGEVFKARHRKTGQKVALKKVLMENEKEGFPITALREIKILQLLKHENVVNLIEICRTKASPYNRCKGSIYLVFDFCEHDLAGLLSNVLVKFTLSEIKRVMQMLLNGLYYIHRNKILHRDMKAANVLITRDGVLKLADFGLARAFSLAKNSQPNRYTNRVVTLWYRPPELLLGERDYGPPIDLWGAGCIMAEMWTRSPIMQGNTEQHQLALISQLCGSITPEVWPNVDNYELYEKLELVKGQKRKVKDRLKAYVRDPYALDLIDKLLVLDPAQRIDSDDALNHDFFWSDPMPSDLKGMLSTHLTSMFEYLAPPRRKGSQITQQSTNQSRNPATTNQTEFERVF
Method in brief: as §1

[3] = molecular target: T3, 384 kinases from the human genome (Homo sapiens, UniProt Q16513); settings: kinase PKN2 (Entrez PKN2)
T3 construct: purchased Eurofin/DiscoverX
Method in brief: as §1

[4] = molecular target: T4, 384 kinases from the human genome (Homo sapiens, UniProt P06213); settings: kinase INSR (Entrez INSR)
T4 construct: purchased Eurofin/DiscoverX
Method in brief: as §1

[5] = molecular target: T5, 384 kinases from the human genome (Homo sapiens, UniProt Q86V86); settings: kinase PIM3 (Entrez PIM3)
T5 construct: purchased Eurofin/DiscoverX
Method in brief: as §1

[6] = molecular target: T6, 384 kinases from the human genome (Homo sapiens, UniProt O14965); settings: kinase AURKA (Entrez AURKA)
T6 construct: purchased Eurofin/DiscoverX
Method in brief: as §1

[7] = molecular target: T7, 384 kinases from the human genome (Homo sapiens, UniProt P07333)
T7 construct: purchased Eurofin/DiscoverX
T7 sequence (P07333 20-972): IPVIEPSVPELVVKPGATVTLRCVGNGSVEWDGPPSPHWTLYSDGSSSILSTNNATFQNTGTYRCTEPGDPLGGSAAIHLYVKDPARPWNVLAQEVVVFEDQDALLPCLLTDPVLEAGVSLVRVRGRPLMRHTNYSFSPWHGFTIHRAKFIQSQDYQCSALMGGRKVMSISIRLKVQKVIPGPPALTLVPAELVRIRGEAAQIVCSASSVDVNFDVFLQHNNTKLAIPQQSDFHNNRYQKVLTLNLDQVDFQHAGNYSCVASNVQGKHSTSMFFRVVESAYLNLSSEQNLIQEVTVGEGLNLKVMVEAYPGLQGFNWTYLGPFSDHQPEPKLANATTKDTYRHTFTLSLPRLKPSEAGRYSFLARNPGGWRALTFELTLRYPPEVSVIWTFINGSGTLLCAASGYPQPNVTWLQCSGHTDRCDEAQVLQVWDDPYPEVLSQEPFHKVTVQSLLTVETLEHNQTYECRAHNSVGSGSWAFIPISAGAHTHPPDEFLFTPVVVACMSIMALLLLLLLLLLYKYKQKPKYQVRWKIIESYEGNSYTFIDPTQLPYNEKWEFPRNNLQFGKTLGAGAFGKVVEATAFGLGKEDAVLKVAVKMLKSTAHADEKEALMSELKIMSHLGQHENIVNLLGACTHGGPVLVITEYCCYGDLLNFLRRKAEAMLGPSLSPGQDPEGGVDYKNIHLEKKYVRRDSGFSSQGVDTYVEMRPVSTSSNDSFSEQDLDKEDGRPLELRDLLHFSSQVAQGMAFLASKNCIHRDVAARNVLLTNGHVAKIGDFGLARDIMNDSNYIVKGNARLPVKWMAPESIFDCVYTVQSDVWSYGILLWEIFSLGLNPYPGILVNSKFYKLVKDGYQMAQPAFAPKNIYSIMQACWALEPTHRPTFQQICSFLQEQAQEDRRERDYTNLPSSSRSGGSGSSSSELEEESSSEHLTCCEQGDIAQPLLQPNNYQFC
Method in brief: as §1

[8] = molecular target: T8, 384 kinases from the human genome (Homo sapiens, UniProt Q13546); settings: kinase RIPK1 (Entrez RIPK1)
T8 construct: purchased Eurofin/DiscoverX
Method in brief: as §1

[9] = molecular target: T9, 384 kinases from the human genome (Homo sapiens, UniProt P10721)
T9 construct: purchased Eurofin/DiscoverX
T9 sequence (P10721 26-976): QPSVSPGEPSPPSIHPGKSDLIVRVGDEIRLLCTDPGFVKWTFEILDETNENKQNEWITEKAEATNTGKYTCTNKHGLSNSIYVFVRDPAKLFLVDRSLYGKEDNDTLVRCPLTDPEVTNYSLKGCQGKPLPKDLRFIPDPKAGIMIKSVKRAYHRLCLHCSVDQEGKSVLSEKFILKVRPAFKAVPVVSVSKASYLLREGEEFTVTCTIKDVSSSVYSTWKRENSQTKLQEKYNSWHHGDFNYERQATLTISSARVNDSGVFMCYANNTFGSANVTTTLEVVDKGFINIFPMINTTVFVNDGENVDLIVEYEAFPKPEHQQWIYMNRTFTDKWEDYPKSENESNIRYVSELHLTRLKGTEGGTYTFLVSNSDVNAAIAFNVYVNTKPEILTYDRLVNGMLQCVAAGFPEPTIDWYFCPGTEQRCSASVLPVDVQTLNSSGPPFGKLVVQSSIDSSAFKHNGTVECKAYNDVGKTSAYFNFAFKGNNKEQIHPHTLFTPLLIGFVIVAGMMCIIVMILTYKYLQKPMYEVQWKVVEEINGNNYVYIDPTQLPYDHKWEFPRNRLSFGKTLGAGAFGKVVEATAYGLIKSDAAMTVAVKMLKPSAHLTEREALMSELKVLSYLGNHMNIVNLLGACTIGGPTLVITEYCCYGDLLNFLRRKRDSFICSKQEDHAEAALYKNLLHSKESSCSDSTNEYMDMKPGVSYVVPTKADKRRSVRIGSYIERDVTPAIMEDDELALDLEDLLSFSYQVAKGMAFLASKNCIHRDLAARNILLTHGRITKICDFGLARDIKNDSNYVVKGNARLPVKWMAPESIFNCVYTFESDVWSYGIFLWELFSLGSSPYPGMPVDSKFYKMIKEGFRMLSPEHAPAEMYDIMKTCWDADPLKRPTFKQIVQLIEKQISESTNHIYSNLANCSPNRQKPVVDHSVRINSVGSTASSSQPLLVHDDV
Method in brief: as §1

[10] = molecular target: T10, 384 kinases from the human genome (Homo sapiens, UniProt P45984); settings: kinase JNK2 (Entrez MAPK9)
T10 construct: purchased Eurofin/DiscoverX
Method in brief: as §1

[11] = molecular target: T11, 384 kinases from the human genome (Homo sapiens, UniProt P35626); settings: kinase GRK3 (Entrez ADRBK2)
T11 construct: purchased Eurofin/DiscoverX
T11 sequence (P35626 whole entry): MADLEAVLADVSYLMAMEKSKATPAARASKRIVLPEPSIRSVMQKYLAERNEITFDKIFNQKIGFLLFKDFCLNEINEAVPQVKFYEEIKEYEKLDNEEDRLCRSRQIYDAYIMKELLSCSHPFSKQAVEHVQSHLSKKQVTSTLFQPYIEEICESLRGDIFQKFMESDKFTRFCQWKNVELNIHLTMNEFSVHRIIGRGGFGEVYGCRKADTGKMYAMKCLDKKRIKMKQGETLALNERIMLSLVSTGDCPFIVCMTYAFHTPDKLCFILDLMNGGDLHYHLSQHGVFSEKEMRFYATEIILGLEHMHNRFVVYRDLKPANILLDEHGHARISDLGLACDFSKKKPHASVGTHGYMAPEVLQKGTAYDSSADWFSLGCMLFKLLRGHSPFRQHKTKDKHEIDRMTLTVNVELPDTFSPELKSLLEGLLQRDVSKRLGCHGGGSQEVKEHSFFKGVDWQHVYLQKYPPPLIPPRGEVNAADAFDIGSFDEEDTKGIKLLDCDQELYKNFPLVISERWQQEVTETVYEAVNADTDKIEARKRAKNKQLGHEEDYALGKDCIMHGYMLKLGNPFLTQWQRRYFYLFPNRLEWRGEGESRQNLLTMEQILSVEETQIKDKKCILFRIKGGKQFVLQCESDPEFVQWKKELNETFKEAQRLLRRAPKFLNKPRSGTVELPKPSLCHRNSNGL
Method in brief: as §1

[12] = molecular target: T12, 384 kinases from the human genome (Homo sapiens, UniProt Q14004); settings: kinase CDC2L5 (Entrez CDK13)
T12 construct: purchased Eurofin/DiscoverX
T12 sequence (Q14004 whole entry): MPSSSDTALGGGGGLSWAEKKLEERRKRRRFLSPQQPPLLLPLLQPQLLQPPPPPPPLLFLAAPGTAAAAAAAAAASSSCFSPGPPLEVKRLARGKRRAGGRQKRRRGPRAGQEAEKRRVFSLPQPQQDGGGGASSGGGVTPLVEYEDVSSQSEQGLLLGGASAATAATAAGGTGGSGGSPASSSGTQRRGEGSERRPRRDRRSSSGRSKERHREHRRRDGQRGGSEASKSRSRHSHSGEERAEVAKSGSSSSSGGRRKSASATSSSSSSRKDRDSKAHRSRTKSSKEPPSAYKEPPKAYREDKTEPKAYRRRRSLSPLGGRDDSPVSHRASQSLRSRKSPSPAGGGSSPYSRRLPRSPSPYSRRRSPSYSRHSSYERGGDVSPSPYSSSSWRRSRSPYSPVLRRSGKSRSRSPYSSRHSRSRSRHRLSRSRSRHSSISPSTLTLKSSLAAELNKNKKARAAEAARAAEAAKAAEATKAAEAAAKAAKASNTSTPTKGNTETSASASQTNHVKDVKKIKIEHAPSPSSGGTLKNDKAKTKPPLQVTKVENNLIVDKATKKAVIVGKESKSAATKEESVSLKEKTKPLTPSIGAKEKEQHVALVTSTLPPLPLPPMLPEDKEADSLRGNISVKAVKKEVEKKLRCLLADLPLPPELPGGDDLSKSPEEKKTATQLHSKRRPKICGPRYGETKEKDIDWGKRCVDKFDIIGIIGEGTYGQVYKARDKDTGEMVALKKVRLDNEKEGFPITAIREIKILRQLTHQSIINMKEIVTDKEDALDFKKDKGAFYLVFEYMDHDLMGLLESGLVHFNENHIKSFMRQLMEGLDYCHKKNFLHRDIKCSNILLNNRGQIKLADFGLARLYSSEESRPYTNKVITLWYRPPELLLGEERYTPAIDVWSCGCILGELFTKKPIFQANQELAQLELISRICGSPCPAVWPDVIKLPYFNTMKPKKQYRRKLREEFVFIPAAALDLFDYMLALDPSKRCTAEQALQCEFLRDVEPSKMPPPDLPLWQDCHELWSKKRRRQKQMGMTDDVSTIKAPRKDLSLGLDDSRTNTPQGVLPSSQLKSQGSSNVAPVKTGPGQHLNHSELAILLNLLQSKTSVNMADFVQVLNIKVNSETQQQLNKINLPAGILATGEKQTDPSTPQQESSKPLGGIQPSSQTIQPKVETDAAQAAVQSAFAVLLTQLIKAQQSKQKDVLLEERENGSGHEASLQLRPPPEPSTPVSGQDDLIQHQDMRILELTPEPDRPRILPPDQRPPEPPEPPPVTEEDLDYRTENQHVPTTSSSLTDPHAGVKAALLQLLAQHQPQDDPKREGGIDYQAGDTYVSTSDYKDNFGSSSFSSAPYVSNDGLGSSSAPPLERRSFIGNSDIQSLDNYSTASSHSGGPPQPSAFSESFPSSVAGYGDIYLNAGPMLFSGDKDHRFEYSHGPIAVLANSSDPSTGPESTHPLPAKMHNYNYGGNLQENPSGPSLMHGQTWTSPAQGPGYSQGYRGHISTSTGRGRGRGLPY
Method in brief: as §1

[13] = molecular target: T13, 384 kinases from the human genome (Homo sapiens, UniProt O96017); settings: kinase CHEK2 (Entrez CHEK2)
T13 construct: purchased Eurofin/DiscoverX
Method in brief: as §1

[14] = molecular target: T14, 384 kinases from the human genome (Homo sapiens, UniProt Q9Y2H1); settings: kinase NDR2 (Entrez STK38L)
T14 construct: purchased Eurofin/DiscoverX
Method in brief: as §1

[15] = molecular target: T15, 384 kinases from the human genome (Homo sapiens, UniProt O15111); settings: kinase IKK-alpha (Entrez CHUK)
T15 construct: purchased Eurofin/DiscoverX
Method in brief: as §1

[16] = molecular target: T16, 384 kinases from the human genome (Homo sapiens, UniProt Q14164); settings: kinase IKK-epsilon (Entrez IKBKE)
T16 construct: purchased Eurofin/DiscoverX
Method in brief: as §1

[17] = molecular target: T17, 384 kinases from the human genome (Homo sapiens, UniProt Q96D53); settings: kinase ADCK4 (Entrez ADCK4)
T17 construct: purchased Eurofin/DiscoverX
T17 sequence (Q96D53 whole entry): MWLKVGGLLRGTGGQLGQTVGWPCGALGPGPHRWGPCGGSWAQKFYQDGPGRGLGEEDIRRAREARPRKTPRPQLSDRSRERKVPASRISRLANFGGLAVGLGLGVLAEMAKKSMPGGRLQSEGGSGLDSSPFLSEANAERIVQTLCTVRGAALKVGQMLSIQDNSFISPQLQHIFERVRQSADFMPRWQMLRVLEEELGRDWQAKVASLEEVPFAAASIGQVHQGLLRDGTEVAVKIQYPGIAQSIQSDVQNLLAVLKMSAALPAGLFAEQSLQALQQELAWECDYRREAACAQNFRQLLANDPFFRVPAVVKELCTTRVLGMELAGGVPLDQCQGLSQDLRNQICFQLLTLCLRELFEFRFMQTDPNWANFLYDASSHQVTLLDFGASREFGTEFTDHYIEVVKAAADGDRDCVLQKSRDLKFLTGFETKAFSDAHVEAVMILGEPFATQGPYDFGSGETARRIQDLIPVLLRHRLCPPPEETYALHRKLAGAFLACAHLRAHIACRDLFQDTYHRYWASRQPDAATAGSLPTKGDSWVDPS
Method in brief: as §1

[18] = molecular target: T18, 384 kinases from the human genome (Homo sapiens, UniProt P57059); settings: kinase SIK (Entrez SIK1)
T18 construct: purchased Eurofin/DiscoverX
Method in brief: as §1

[19] = molecular target: T19, 384 kinases from the human genome (Homo sapiens, UniProt Q16832); settings: kinase DDR2 (Entrez DDR2)
T19 construct: purchased Eurofin/DiscoverX
Method in brief: as §1

[20] = molecular target: T20, 384 kinases from the human genome (Homo sapiens, UniProt Q9Y5S2); settings: kinase MRCKB (Entrez CDC42BPB)
T20 construct: purchased Eurofin/DiscoverX
Method in brief: as §1

[21] = molecular target: T21, 384 kinases from the human genome (Homo sapiens, UniProt Q9H093); settings: kinase SNARK (Entrez NUAK2)
T21 construct: purchased Eurofin/DiscoverX
Method in brief: as §1

[22] = molecular target: T22, 384 kinases from the human genome (Homo sapiens, UniProt Q00536); settings: kinase PCTK1 (Entrez CDK16)
T22 construct: purchased Eurofin/DiscoverX
Method in brief: as §1

[23] = molecular target: T23, 384 kinases from the human genome (Homo sapiens, UniProt P08631); settings: kinase HCK (Entrez HCK)
T23 construct: purchased Eurofin/DiscoverX
Method in brief: as §1

[24] = molecular target: T24, 384 kinases from the human genome (Homo sapiens, UniProt Q8NEV4); settings: kinase MYO3A (Entrez MYO3A)
T24 construct: purchased Eurofin/DiscoverX
Method in brief: as §1

[25] = molecular target: T25, 384 kinases from the human genome (Homo sapiens, UniProt P24941); settings: kinase CDK2 (Entrez CDK2)
T25 construct: purchased Eurofin/DiscoverX
Method in brief: as §1

[26] = molecular target: T26, 384 kinases from the human genome (Homo sapiens, UniProt Q9HC98); settings: kinase NEK6 (Entrez NEK6)
T26 construct: purchased Eurofin/DiscoverX
Method in brief: as §1

How did the “Percent Control” value [1] turn out when `CC(C)C(=O)N1CCN(c2ccc(NC(=O)c3cc4ccccc4o3)cc2Cl)CC1` [Compound 21] was run?
Its value is 94%.

What about the “Percent Control” value [2] of the same compound?
The value was 99%.

And the “Percent Control” value [3]?
The value was 100%.

What about the “Percent Control” value [4] of the same compound?
Its value is 82%.

And the “Percent Control” value [5]?
Its value is 90%.

What about the “Percent Control” value [6] of the same compound?
Its value is 89%.

And the “Percent Control” value ([7]; kinase CSF1R (Entrez CSF1R))?
The value was 73%.

And the “Percent Control” value ([7]; kinase CSF1R-autoinhibited (Entrez CSF1R))?
Its value is 100%.

And the “Percent Control” value [8]?
Its value is 76%.

And the “KIT binding to its ligand affected” value ([9]; 10 µM of 21, compared to DMSO (100%))?
The value was “more than 90%”.

What about the “Percent Control” value ([9]; kinase KIT (Entrez KIT)) of the same compound?
The value was 5.9%.

And the “Percent Control” value ([9]; kinase KIT-autoinhibited (Entrez KIT))?
The value was 93%.

What about the “Percent Control” value [10] of the same compound?
Its value is 70%.

And the “Percent Control” value [11]?
Its value is 100%.

And the “Percent Control” value [12]?
Its value is 100%.

What about the “Percent Control” value [13] of the same compound?
The value was 100%.

What about the “Percent Control” value [14] of the same compound?
The value was 77%.

What about the “Percent Control” value [15] of the same compound?
The value was 100%.

And the “Percent Control” value [16]?
The value was 100%.

What about the “Percent Control” value [17] of the same compound?
The value was 77%.

And the “Percent Control” value [18]?
The value was 94%.

And the “Percent Control” value [19]?
The value was 100%.

What about the “Percent Control” value [20] of the same compound?
The value was 94%.

And the “Percent Control” value [21]?
Its value is 96%.

And the “Percent Control” value [22]?
Its value is 96%.

What about the “Percent Control” value [23] of the same compound?
The value was 99%.

And the “Percent Control” value [24]?
The value was 89%.

And the “Percent Control” value [25]?
Its value is 100%.

And the “Percent Control” value [26]?
Its value is 94%.
